According to BigSolDB 2.1:

CC(C)[C@H](NC(=O)OCC1c2ccccc2-c2ccccc21)C(=O)O
solubility (mole fraction)
Conditions	283.15 K	288.15 K	293.15 K	298.15 K	303.15 K	308.15 K	313.15 K	318.15 K	323.15 K
in 2-butanone	0.0403	0.0448	0.0509	0.057	0.0632	0.0699	0.0793	0.0902	0.102
in acetone	0.0449	0.0504	0.0568	0.0627	0.0707	0.0792	0.0915	0.104	0.121
in acetonitrile	0.00264	0.00327	0.00399	0.00477	0.00577	0.00703	0.00867	0.0105	0.0128
in dimethyl carbonate	0.0073	0.00766	0.00901	0.0108	0.0131	0.016	0.0196	0.0235	0.0294
in ethanol	0.0177	0.0243	0.0261	0.0312	0.0373	0.0462	0.057	0.0714	0.0877
in isobutanol	0.00967	0.0112	0.0127	0.0152	0.0186	0.0236	0.0296	0.0366	0.0541
in isopentanol	0.0103	0.0129	0.0159	0.0192	0.0231	0.0286	0.0351	0.0429	0.0552
in isopropanol	0.0105	0.0133	0.0161	0.0204	0.0271	0.0352	0.0448	0.0533	0.071
in methanol	0.0238	0.0259	0.0321	0.0396	0.0468	0.0571	0.0694	0.0846	0.0985
in n-butanol	0.0155	0.019	0.0216	0.0244	0.0287	0.0351	0.0434	0.0536	0.0728
in n-butyl acetate	0.0143	0.0162	0.0184	0.0209	0.0234	0.0273	0.0314	0.0362	0.0417
in n-pentanol	0.016	0.0172	0.0199	0.0233	0.0281	0.0344	0.0417	0.0495	0.0582
in n-propanol	0.0141	0.0169	0.0199	0.0227	0.0319	0.0398	0.0481	0.057	0.0742
in sec-butanol	0.016	0.0174	0.0222	0.0275	0.0349	0.0435	0.0549	0.0653	0.0801
